Values joined by “and” are separate entries in the source; they are usually repeats but may differ in a detail not shown here. Equal values may be shown once. “Also recorded” adds a separate entry of the source.
Key:
[1] = test system: A. palmeri population from Arkansas (CCR); parameters: method as in ref 16 = [16]; 16 Priess GL , Norsworthy JK , Godara N , Mauromoustakos A , Butts TR , Roberts TL et al ., Confirmation of glufosinate‐resistant palmer amaranth and response to other herbicides . Weed Technol 36 : 3; conditions: CCR population compared with susceptible standards; listed as GFA; cited from earlier work
[2] = test system: Amaranthus palmeri cytosolic GS1.1 S59N; assay: GS enzyme inhibition assay, GS1.1 S59N; format: biochemical
Procedure: (§1) GS activity was determined spectrophotometrically following the Sigma‐Aldrich enzymatic assay protocol. The reaction couples the ATP‐dependent conversion of L‐glutamate and ammonium to L‐glutamine with pyruvate kinase (PK) and L‐lactate dehydrogenase (LDH), such that oxidation of β‐NADH to β‐NAD^+ can be monitored at 340 nm. Recombinant GS from A. palmeri was expressed in E. coli, purified by affinity chromatography, and quantified by the Bradford method using bovine serum albumin as standard. […] Reaction mixtures were equilibrated to 37°C and initiated by the addition of enzyme, and the decrease in absorbance at 340 nm was recorded for 5–10 min; only the linear portion of the curve was used for activity calculations. […] Activity was calculated using an extinction coefficient for NADH of 6.22 mM^−1 cm^−1 and expressed as units per mg protein, where one unit corresponds to the formation of 1 μmol of L‐glutamine in […] at pH 7.1 and 37 °C. […] Percent inhibition was calculated relative to untreated (positive) and no‐enzyme (negative) controls. […] Resistance factors were calculated by dividing the IC₅₀ of each mutant variant by that of wild‐type GS.

[3] = test system: Amaranthus palmeri cytosolic GS1.1 R291C; assay: GS enzyme inhibition assay, GS1.1 R291C; format: biochemical
Procedure: as §1

[4] = test system: Amaranthus palmeri cytosolic GS1.1 E131Q; assay: GS enzyme inhibition assay, GS1.1 E131Q; format: biochemical
Procedure: as §1

[5] = test system: Arabidopsis thaliana plants expressing Arabidopsis GS2.2 G254D; assay: Postemergence GFA spray on transgenic Arabidopsis expressing GS2.2 G254D; format: in vivo; conditions: transgenic Arabidopsis expressing Arabidopsis GS2.2 G254D; 100, 500 and 1000 g ha^−1 postemergence; listed as GFA
Description: Mutant GS variants G2.2 G255D from A. palmeri and G254D from Arabidopsis were cloned into the RTP6557 transformation vector, which was subsequently introduced into Agrobacterium tumefaciens strain C58C1pMP90. The construct also carried an acetolactate synthase (ALS) herbicide‐resistance gene as a selectable marker, ensuring that Arabidopsis seedlings tested for resistance to GFA herbicide expressed the transgene.
Arabidopsis plants carrying immature floral buds were transformed by the floral‐dip method, immersing inflorescences for 10 s in the bacterial suspension supplemented with Silwet‐L77 at 0.05% v/v. After dipping, plants were maintained overnight under high humidity and low light, then transferred to long‐day conditions until maturity. Once siliques had yellowed, seeds were harvested into paper bags. T₁ seeds were collected, placed into Falcon tubes, and stored at 4 °C.
After ≥14 d of cold storage, T₁ seeds were sown and stratified as previously described. Transgenic plants were confirmed by PCR detection of the AHAS resistance marker gene. […]
Herbicide treatments were applied at the 10‐leaf stage using a spray chamber calibrated to deliver 375 L ha^−1 of spray solution. […] Herbicide efficacy was visually evaluated 7 d after application.

[6] = test system: Amaranthus palmeri cytosolic GS1.1 E131D; assay: GS enzyme inhibition assay, GS1.1 E131D; format: biochemical
Procedure: as §1

[7] = test system: Amaranthus palmeri cytosolic GS1.1 R316A; assay: GS enzyme inhibition assay, GS1.1 R316A; format: biochemical
Procedure: as §1

[8] = test system: Amaranthus palmeri cytosolic GS1.1 K177L; assay: GS enzyme inhibition assay, GS1.1 K177L; format: biochemical
Procedure: as §1

[9] = test system: Amaranthus palmeri cytosolic GS1.1 R311Q; assay: GS enzyme inhibition assay, GS1.1 R311Q; format: biochemical
Procedure: as §1

[10] = test system: Amaranthus palmeri cytosolic GS1.1 R311P; assay: GS enzyme inhibition assay, GS1.1 R311P; format: biochemical
Procedure: as §1

[11] = biological target: Amaranthus palmeri cytosolic GS1.1 G245P; assay: GS enzyme inhibition assay, GS1.1 G245P; format: biochemical; conditions: read-out: Glufosinate‐ammonium IC50
Procedure: as §1

[12] = test system: Amaranthus palmeri cytosolic GS1.1 V161N; assay: GS enzyme inhibition assay, GS1.1 V161N; format: biochemical
Procedure: as §1

[13] = test system: Amaranthus palmeri cytosolic GS1.1 G162N; assay: GS enzyme inhibition assay, GS1.1 G162N; format: biochemical
Procedure: as §1

[14] = test system: Amaranthus palmeri cytosolic GS1.1 V193T; assay: GS enzyme inhibition assay, GS1.1 V193T; format: biochemical
Procedure: as §1

[15] = test system: Amaranthus palmeri cytosolic GS1.1 E192K; assay: GS enzyme inhibition assay, GS1.1 E192K; format: biochemical
Procedure: as §1

[16] = read-out: Glufosinate‐ammonium IC50

CP(=O)(O)CCC(N)C(=O)O (stereo not drawn) [Glufosinate‐ammonium]
resistance indices [1]: 5.1 and 5.9
Resistance index (RI) ([2]; IC50 variant / IC50 WT): 1.8
IC50 [2, 16]: 39.5 µM
Glufosinate‐ammonium % Inhibition at saturation 10 000 μM ([3]; 10 000 μM): 0%
IC50 [3, 16]: > 10000 µM
Glufosinate‐ammonium % Inhibition at saturation 10 000 μM ([4]; 10 000 μM): 6.5%
IC50 [4, 16]: > 10000 µM
tolerance to GFA (visual injury) [5]: failed to confer tolerance; also recorded: sensitive phenotype
Glufosinate‐ammonium % Inhibition at saturation 10 000 μM ([6]; 10 000 μM): 48%
IC50 [6, 16]: > 10000 µM
Resistance index (RI) ([7]; IC50 variant / IC50 WT): 14.4
IC50 [7, 16]: 313 µM
Resistance index (RI) ([8]; IC50 variant / IC50 WT): 0.1
IC50 [8, 16]: 1.3 µM
Glufosinate‐ammonium % Inhibition at saturation 10 000 μM ([9]; 10 000 μM): 1.9%
IC50 [9, 16]: > 10000 µM
Glufosinate‐ammonium % Inhibition at saturation 10 000 μM ([10]; 10 000 μM): 0%
IC50 [10, 16]: > 10000 µM
IC50 [11]: 247 µM
Resistance index (RI) ([12]; IC50 variant / IC50 WT): 3.0
IC50 [12, 16]: 64 µM
Resistance index (RI) ([13]; IC50 variant / IC50 WT): 22.6
IC50 [13, 16]: 489 µM
Resistance index (RI) ([14]; IC50 variant / IC50 WT): 3.2
IC50 [14, 16]: 69 µM
Glufosinate‐ammonium % Inhibition at saturation 10 000 μM ([15]; 10 000 μM): 1.3%
IC50 [15, 16]: > 10000 µM

Source: paper PMC13352219, “Analysis of glutamine synthetase target‐site mutations and their role in endowing glufosinate‐ammonium resistance” (Pest Management Science, 2026)
